From PubChem BioAssay (NCI)
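How tested: cells in 96-well plates exposed to compound for 48 hours at five concentrations. At the TGI there is no net growth.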

Assays:
Experiment in all cases: DTP human tumour cell line panel, 48 h
[1] = test system: UACC-62 melanoma
[2] = test system: SF-268 CNS
[3] = test system: HOP-62 NSCLC
[4] = test system: LOX IMVI melanoma
[5] = test system: MCF7 breast
[6] = test system: BT-549 breast
[7] = test system: NCI/ADR-RES ovarian
[8] = test system: SN12C renal
[9] = test system: KM12 colon
[10] = test system: DU-145 prostate
[11] = test system: SNB-75 CNS
[12] = test system: T-47D breast
[13] = test system: OVCAR-3 ovarian
[14] = test system: SK-MEL-2 melanoma
[15] = test system: HCC-2998 colon
[16] = test system: NCI-H522 lung
[17] = test system: NCI-H460 lung
[18] = test system: SK-MEL-28 melanoma
[19] = test system: PC-3 prostate
[20] = test system: HT29 colon
[21] = test system: NCI-H23 lung
[22] = test system: TK-10 renal
[23] = test system: RXF 393 renal
[24] = test system: UACC-257 melanoma
[25] = test system: ACHN renal
[26] = test system: A498 renal
[27] = test system: UO-31 renal
[28] = test system: MDA-N
[29] = test system: HCT-15 colon
[30] = test system: HS 578T breast
[31] = test system: SF-539 CNS
[32] = test system: CAKI-1 renal
[33] = test system: A549 NSCLC
[34] = test system: IGROV1 ovarian
[35] = test system: OVCAR-8 ovarian
[36] = test system: SK-OV-3 ovarian
[37] = test system: EKVX NSCLC
[38] = test system: MDA-MB-231 breast
[39] = test system: HCT-116 colon
[40] = test system: OVCAR-5 ovarian
[41] = test system: 786-0 renal
[42] = test system: COLO 205 colon
[43] = test system: SNB-19 CNS
[44] = test system: MALME-3M melanoma
[45] = test system: SW-620 colon
[46] = test system: NCI-H226 lung
[47] = test system: SF-295 CNS
[48] = test system: OVCAR-4 ovarian
[49] = test system: M14 melanoma
[50] = test system: SK-MEL-5 melanoma
[51] = test system: MDA-MB-435
[52] = test system: HOP-92 NSCLC
[53] = test system: U251 CNS
[54] = test system: RPMI-8226 leukemia
[55] = test system: HL-60(TB) leukemia
[56] = test system: CCRF-CEM leukemia
[57] = test system: K-562 leukemia
[58] = test system: SR leukemia

## O=C(c1ccccc1)c1ccc2c(c1)nc1n2C(c2c(F)cccc2F)SC1 (stereo not given)
[1]
  TGI: 72.2 µM
[2]
  TGI: > 100 µM
[3]
  TGI: > 100 µM
[4]
  TGI: > 100 µM
[5]
  TGI: > 100 µM
[6]
  TGI: > 100 µM
[7]
  TGI: > 100 µM
[8]
  TGI: > 100 µM
[9]
  TGI: 66.7 µM
[10]
  TGI: > 100 µM
[11]
  TGI: 99 µM
[12]
  TGI: 43.5 µM
[13]
  TGI: 96.2 µM
[14]
  TGI: 62.4 µM
[15]
  TGI: > 100 µM
[16]
  TGI: > 100 µM
[17]
  TGI: > 100 µM
[18]
  TGI: > 100 µM
[19]
  TGI: > 100 µM
[20]
  TGI: 55.9 µM
[21]
  TGI: > 100 µM
[22]
  TGI: > 100 µM
[23]
  TGI: > 100 µM
[24]
  TGI: > 100 µM
[25]
  TGI: > 100 µM
[26]
  TGI: 72.5 µM
[27]
  TGI: 54.8 µM
[28]
  TGI: 55.1 µM
[29]
  TGI: > 100 µM
[30]
  TGI: > 100 µM
[31]
  TGI: > 100 µM
[32]
  TGI: > 100 µM
[33]
  TGI: > 100 µM
[34]
  TGI: > 100 µM
[35]
  TGI: > 100 µM
[36]
  TGI: > 100 µM
[37]
  TGI: 84.5 µM
[38]
  TGI: > 100 µM
[39]
  TGI: 42.2 µM
[40]
  TGI: > 100 µM
[41]
  TGI: > 100 µM
[42]
  TGI: 46.4 µM
[43]
  TGI: > 100 µM
[44]
  TGI: > 100 µM
[45]
  TGI: > 100 µM
[46]
  TGI: > 100 µM
[47]
  TGI: > 100 µM
[48]
  TGI: > 100 µM
[49]
  TGI: 61 µM
[50]
  TGI: 27.8 µM
[51]
  TGI: > 100 µM
[52]
  TGI: > 100 µM
[53]
  TGI: > 100 µM
[54]
  TGI: > 100 µM

## Cc1cccc(/C=N\NC(=S)N2CCCCC2)n1
[1]
  TGI: 3.81 µM
[2]
  TGI: > 100 µM
[3]
  TGI: 0.525 µM
[4]
  TGI: 41.6 µM
[55]
  TGI: 0.265 µM
[7]
  TGI: 0.43 µM
[8]
  TGI: 9.38 µM
[9]
  TGI: > 100 µM
[10]
  TGI: > 100 µM
[11]
  TGI: 9.32 µM
[12]
  TGI: > 100 µM
[14]
  TGI: > 100 µM
[15]
  TGI: > 100 µM
[16]
  TGI: > 100 µM
[17]
  TGI: 0.788 µM
[18]
  TGI: > 100 µM
[56]
  TGI: 0.225 µM
[19]
  TGI: > 100 µM
[20]
  TGI: > 100 µM
[21]
  TGI: > 100 µM
[23]
  TGI: 0.593 µM
[24]
  TGI: 0.0589 µM
[25]
  TGI: 0.863 µM
[26]
  TGI: 0.347 µM
[57]
  TGI: > 100 µM
[27]
  TGI: 26.2 µM
[28]
  TGI: > 100 µM
[29]
  TGI: > 100 µM
[30]
  TGI: > 100 µM
[32]
  TGI: 3.62 µM
[33]
  TGI: > 100 µM
[34]
  TGI: 0.0702 µM
[35]
  TGI: 0.582 µM
[36]
  TGI: > 100 µM
[37]
  TGI: > 100 µM
[39]
  TGI: 0.125 µM
[40]
  TGI: > 100 µM
[41]
  TGI: 20.8 µM
[58]
  TGI: 0.123 µM
[42]
  TGI: 0.22 µM
[43]
  TGI: > 100 µM
[44]
  TGI: > 100 µM
[45]
  TGI: > 100 µM
[46]
  TGI: 0.747 µM
[47]
  TGI: 6.58 µM
[49]
  TGI: 0.406 µM
[50]
  TGI: 0.187 µM
[51]
  TGI: > 100 µM
[52]
  TGI: > 100 µM
[53]
  TGI: > 100 µM
[54]
  TGI: 0.502 µM
